From paper PMC7018972, “Novel and selective inactivators of Triosephosphate isomerase with anti-trematode activity” (Scientific Reports, 2020) come the findings set out here.

The target of the first test is Fasciola hepatica TIM (FhTIM) (Fasciola hepatica, UniProt S4UI50). Description: Inhibition of recombinant FhTIM, coupled enzyme assay. Format: biochemical. The settings on record: Table 1S, screening of 340 compounds in FhTIM; table head prints no unit, µM per b8/b9; read-out: IC50. As for the experimental part: Expression and purification of proteins: FhTIM, RabbitTIM and HsTIM were expressed in Escherichia coli and purified as described in the literature[31],[37]. […] Before use, extensive dialysis against 100 mM triethanolamine/10 mM EDTA (pH 7.4) was performed. […] Enzymatic activity was determined following the conversion of glyceraldehydes-3-phosphate into dihydroxyacetone phosphate in a coupled enzyme assay. The decrease in absorbance at 340 nm was followed in a multiplate reader VarioskanTM Flash Multimode Reader (Thermo ScientificTM, Waltham, MA, USA) at 38 °C. The reaction mixture (1 mL, pH 7.4) contained 100 mM triethanolamine, 10 mM EDTA, 0.2 mM NADH, 1 mM glyceraldehydes-3-phosphate and 0.9 units of α-glycerol phosphate dehydrogenase. The reaction was initiated by the addition of 5 ng/mL of the TIM of interest. For the inhibition studies, TIM was incubated at a concentration of 5 mg/mL in a buffer containing 100 mM triethanolamine, 10 mM EDTA, pH 7.4 and 10% of DMSO at 37 °C for 1 h. The mixture also contained the compounds, dissolved in DMSO, at the indicated concentrations. After 1 h, 10 µL were withdrawn and added to a final volume of 100 µL of the reaction mixture for the activity assay. The inhibition assay was performed in a 96-well microplate. […] The experiments were performed in triplicate in two independent experiments.
Sequence of Fasciola hepatica TIM (FhTIM) (S4UI50 entry or part of it): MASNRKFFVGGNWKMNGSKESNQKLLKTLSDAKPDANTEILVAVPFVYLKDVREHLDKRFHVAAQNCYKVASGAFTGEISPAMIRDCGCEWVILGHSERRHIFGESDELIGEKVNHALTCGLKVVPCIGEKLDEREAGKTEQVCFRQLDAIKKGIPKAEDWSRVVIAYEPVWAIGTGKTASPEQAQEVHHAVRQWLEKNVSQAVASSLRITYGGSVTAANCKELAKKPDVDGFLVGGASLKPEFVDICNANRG
What is called IC50 is the concentration that gives 50% inhibition. Turning to `COc1nn(CCOCCN(C)CC=Cc2ccccc2)c2ccc([N+](=O)[O-])cc12` [Compound 504], the IC50 is greater than 100 µM.
On the same count and under the same terms, then `[O-][N+]1=c2ccccc2=[N+]([O-])C12CCCC2` [Compound 633], with greater than 100 µM.
On the same count and under the same terms, the value for `O=C(O)c1ccc(C=CCN2C(=O)c3ccccc3C2=O)cc1` (mixture of isomers) [Compound 617] was greater than 100 µM; that for `Cc1nnc[n+]([O-])c1C=Cc1ccc([N+](=O)[O-])o1` [Compound 359] was greater than 100 µM; that for `O=C(C=Cc1cccc2ccccc12)c1ccccc1O` [Compound 1269] was greater than 100 µM.
Same read-out and setting: then `N#Cc1c2ccccc2[n+]([O-])n1CCCl` [Compound 483], with greater than 100 µM; and `N#CSc1ccc(C=O)cc1[N+](=O)[O-]` [Compound 670], with 100 µM; and `CC(=O)Nc1ccc(C=NO)cc1` [Compound 1106], with greater than 100 µM.
Regarding `O=c1cc(-c2ccccc2)oc2ccccc12` [Compound 148], the IC50 is greater than 100 µM.
Regarding `O=C1CSC(=NN=Cc2ccc([N+](=O)[O-])s2)N1` [Compound 258], the IC50 was greater than 100 µM.
Still for that read-out and setting: the value for `COc1ccc(NC(=O)CCl)cc1` [Compound 379] was greater than 100 µM.
Take `CC12CCC(O)CC1=CCC1C2CCC2(C)C(C(=O)C=Cc3ccccc3Cl)CCC12` (stereo not shown) [Compound 1259]: the IC50 is greater than 100 µM.
The same measure, in the same setting: the value for `CNc1ccc(C)cc1[N+](=O)[O-]` [Compound 651] was greater than 100 µM; that for `O=C1CSC(=NN=Cc2ccc([N+](=O)[O-])s2)N1c1ccccc1` [Compound 262] was greater than 100 µM.
On the same count and under the same terms, the value for `O=[N+]([O-])c1ccc2c(c1)c(OCc1ccccc1)nn2CCCCCN1CCN(CC=Cc2ccccc2)CC1` [Compound 505] was greater than 100 µM; that for `Cc1ccc(-n2c(C#N)c3ccccc3[n+]2[O-])cc1` [Compound 476] was greater than 100 µM; that for `C=CCn1c(-c2ccc(Cl)cc2)csc1=NN=CC=Cc1ccco1` [Compound 266] was greater than 100 µM.
Still for that read-out and setting: then `[Se]=C(NCCN1CCOCC1)NN=CC=Cc1ccco1` [Compound 1147], with 50 to 100 µM; and `O=[N+]([O-])c1ccc(C=NN=c2[nH]c(-c3ccc(Cl)cc3)cs2)s1` [Compound 267], with greater than 100 µM.
In the case of `C=CCN(C(C)=O)C1=NNC(c2ccc([N+](=O)[O-])s2)S1` (stereo not shown) [Compound 287], the IC50 is greater than 100 µM.
Still for that read-out and setting: then `CCCCN1C(=O)C(=Cc2ccc([N+](=O)[O-])cc2)C(=O)N(CCCC)S1(=O)=O` [Compound 1165], with greater than 100 µM; and `C=CCn1c(-c2ccc([N+](=O)[O-])cc2)csc1=NN=C/C=C/c1cccs1` [Compound 907], with greater than 100 µM; and `N#Cc1c(-c2ccccc2)no[n+]1[O-]` [Compound 650], with greater than 100 µM.
Still for that read-out and setting: the value for `C=CCNC(=S)NN=Cc1ccc(SC)cc1` [Compound 281] was greater than 100 µM.
The same measure, in the same setting: then `C=CCN(C(C)=O)C1=NNC(c2cccs2)S1` (stereo not shown) [Compound 286], with greater than 100 µM.
Take `C(=Cc1ccco1)C=NN1CCN(CC=Cc2ccccc2)CC1` [Compound 912]: the IC50 is greater than 100 µM.
On the same count and under the same terms, then `O=[N+]([O-])c1ccc2c(c1)c(O)nn2Cc1ccccc1CN1CCCCC1` [Compound 456], with greater than 100 µM; and `O=C(/C=C/c1ccc([N+](=O)[O-])o1)N1CCN(C/C=C/c2ccccc2)CC1` [Compound 51], with greater than 100 µM.
Still for that read-out and setting: the value for `C=CCNC(=S)NN=Cc1ccc2c(c1)OCO2` [Compound 280] was greater than 100 µM; that for `COc1ccc(C=Cc2c(C)[n+]([O-])nc[n+]2[O-])cc1` [Compound 218] was greater than 100 µM; that for `C=CCNC(=S)NN=Cc1ccc(C)o1` [Compound 788] was greater than 100 µM.
With `C=CCn1c(C)csc1=NN=Cc1ccc([N+](=O)[O-])s1` [Compound 143], the IC50 was 50 to 100 µM.
On the same count and under the same terms, the value for `O=S(=O)(O)c1ccc(C=NN=c2scc(-c3csc(=NN=Cc4ccc(S(=O)(=O)O)o4)n3-c3ccccc3)n2-c2ccccc2)o1` [Compound 781] was greater than 100 µM; that for `C=CCN1C(=O)CSC1=NN=CC=CC=Cc1cccs1` [Compound 312] was greater than 100 µM; that for `CC(=O)Nc1ccc(C#N)cc1` [Compound 1104] was greater than 100 µM.
`O=[N+]([O-])c1ccc2c(c1)c(OCc1ccccc1)nn2CCOCCBr` [Compound 516]: the IC50 was greater than 100 µM.
Still for that read-out and setting: then `COCCNC(=O)/C=C/c1ccc([N+](=O)[O-])o1` [Compound 60], with greater than 100 µM.
On the same count and under the same terms, the value for `O=[N+]([O-])c1ccc2c(c1)c(O)nn2CCOCCN1CCSCC1` [Compound 642] was greater than 100 µM.
On the same count and under the same terms, then `C=CCn1c(-c2ccc(Cl)cc2)csc1=NN=Cc1ccc2no[n+]([O-])c2c1` [Compound 304], with greater than 100 µM.
`COc1nn(CCOCCN(C)C)c2ccc([N+](=O)[O-])cc12` [Compound 474]: the IC50 was greater than 100 µM.
The same measure, in the same setting: the value for `CN1C/C(=C\C=C\c2ccccc2)C(=O)/C(=C/C=C/c2ccccc2)C1` [Compound 1284] was 50 to 100 µM; that for `C=CCn1c(-c2csc(=NN=CC=Cc3ccccc3)n2-c2ccccc2)csc1=NN=CC=Cc1ccco1` [Compound 791] was greater than 100 µM.
Same read-out and setting: the value for `C=CCn1c(C(=O)CN2CCN(Cc3ccccc3)CC2)csc1=NN=CC=Cc1ccco1` [Compound 1114] was greater than 100 µM; that for `Cc1ccc(C=CC=NN2CCN(CC=Cc3ccccc3)CC2)o1` [Compound 903] was greater than 100 µM; that for `COc1ccc(CN2c3nc(-c4ccccc4OC)[nH]c3C(N)=NS2(=O)=O)cc1` [Compound 707] was greater than 100 µM.
Still for that read-out and setting: then `O=C1C(=Cc2ccccc2)CCC1=Cc1ccccc1` [Compound 1247], with 50 to 100 µM; and `CC12CCC(O)CC1=CCC1C2CCC2(C)C(C(=O)C=CC=Cc3ccccc3)CCC12` (stereo not shown) [Compound 1279], with greater than 100 µM.
Consider `COc1ccc(CNCC(=O)O)cc1` [Compound 659], for which the concentration for half-maximal inhibition (IC50) is greater than 100 µM.
On the same count and under the same terms, the value for `O=C1C(=Cc2ccccc2)CCCC1=Cc1ccccc1` [Compound 799] was 100 µM; that for `O=C1CC(=O)N(CCc2ccccc2)S(=O)(=O)N1CCc1ccccc1` [Compound 127] was greater than 100 µM; that for `N#CSCC(=O)c1ccccc1` [Compound 811] was greater than 100 µM.
`C=CCn1c(-c2ccc(Br)cc2)csc1=NN=C(C)C1CCC2C3CC=C4CC(O)CCC4(C)C3CCC12C` (stereo not shown) [Compound 1272]: the IC50 was greater than 100 µM.
On the same count and under the same terms, then `C(=Cc1ccco1)C=NN=CC=Cc1ccco1` [Compound 1140], with greater than 100 µM; and `C=CCN1C(=O)CSC1=NN=CC=Cc1ccco1` [Compound 264], with greater than 100 µM.
Take `CCCCNCCCCCn1nc(OC)c2cc([N+](=O)[O-])ccc21` [Compound 643]: the IC50 is greater than 100 µM.
Regarding `C(=Cc1ccccc1)CCN1CCN(CCC=Cc2ccccc2)CC1` [Compound 1119], the IC50 is greater than 100 µM.
The same measure, in the same setting: the value for `Clc1ccc(-c2csc(NN=CC=Cc3ccco3)n2)cc1` [Compound 901] was greater than 100 µM; that for `S=C(NCc1ccccc1)NCc1ccccc1` [Compound 1085] was greater than 100 µM; that for `Cc1c(C=NNC(N)=S)no[n+]1[O-]` [Compound 1283] was greater than 100 µM.
For `Cc1ccc(C=CC=CC(C=CC=Cc2ccc(C)o2)=NN2CCN(CC=Cc3ccccc3)CC2)o1` [Compound 1102], the IC50 is greater than 100 µM.
The same measure, in the same setting: then `C=CCn1c(-c2csc(=NN=Cc3ccc(S(=O)(=O)O)o3)n2-c2ccccc2)csc1=NN=CC=Cc1ccco1` [Compound 785], with greater than 100 µM; and `[O-][n+]1onc(-c2ccccc2)c1CNc1cccc2ccccc12` [Compound 169], with greater than 100 µM.
With `NNC(=O)Nc1ccc(Cl)cc1` [Compound 397], the IC50 was greater than 100 µM.
For the compound `O=c1c2cc([N+](=O)[O-])ccc2n2n1CCCCC2` [Compound 637], the IC50 was greater than 100 µM.
Same read-out and setting: then `C=CCn1c(-c2ccccc2)csc1=NN=Cc1ccc([N+](=O)[O-])s1` [Compound 147], with greater than 100 µM; and `Nc1nc(-c2ccc([N+](=O)[O-])cc2)cs1` [Compound 1098], with greater than 100 µM; and `C=CCn1c(-c2ccccc2)csc1=NN=Cc1ccco1` [Compound 1109], with greater than 100 µM.
For `C=CCn1c(C)csc1=NN=Cc1ccco1` [Compound 1110], the IC50 is greater than 100 µM.
Same read-out and setting: then `C=CCN(C(C)=O)C1=NN(C(C)=O)C(C=Cc2ccco2)S1` (stereo not shown) [Compound 285], with greater than 100 µM.
For `Cc1c(C=Cc2ccc(N(C)C)cc2)[n+]([O-])cn[n+]1[O-]` [Compound 219], the IC50 was greater than 100 µM.
Still for that read-out and setting: the value for `COc1nn(CCOCCI)c2ccc([N+](=O)[O-])cc12` [Compound 514] was greater than 100 µM.
The same measure, in the same setting: the value for `C=CCn1c(-c2csc(=NN=Cc3ccccc3)n2-c2ccccc2)csc1=NN=CC=Cc1ccco1` [Compound 782] was greater than 100 µM; that for `Cc1ncc([N+](=O)[O-])n1CCI` [Compound 712] was greater than 100 µM.
Same read-out and setting: the value for `O=C(C=CC=Cc1ccccc1)C=CC=Cc1ccccc1` [Compound 797] was greater than 100 µM; that for `C(=Cc1ccco1)C=NN=c1scc(-c2ccccc2)n1-c1ccccc1` [Compound 1132] was greater than 100 µM.

The test is the same for the next values; noted with them: recombinant FhTIM, 1 h incubation with compound at 37 °C; read-out: IC50.
Take `CN(C)CCCNS(=O)(=O)NCCCN(C)C` [Compound 121]: the IC50 amounted to 50 ± 9 µM.
